Activity calls are given as the source filed them. No cut-off for these calls is given here.
Columns and labels:
[1] = system: COLO357; assay: Induction of cell cycle arrest in human Colo-357 cells assessed as accumulation at G2/M phase at 5 uM incubated for 72 hrs by propidium iodide staining based flow cytometry (reference value: 31%); type: functional
[2] = system: HEK293; assay: Cytotoxic activity in HEK293 cells assessed as reduction in cell viability incubated for 72 hrs by MTT assay; type: cell-based; details: Homo sapiens, HEK293, 72 h
[3] = system: COLO357; assay: Growth inhibition of human Colo-357 cells incubated for 72 hrs by MTT assay; type: functional
[4] = species on record: Homo sapiens; assay: Inhibition of beta tubulin assembly in human Colo-357 cells at 5 uM incubated for 24 hrs by anti-tubulin antibody based confocal microscopy; type: cell-based
[5] = system: COLO357; assay: Cytotoxic activity in human Colo-357 cells assessed as reduction in cell viability incubated for 72 hrs by MTT assay; type: functional, cell-based; details: COLO357, 72 h
[6] = system: COLO357; assay: Induction of cell cycle arrest in human Colo-357 cells assessed as accumulation at G phase at 5 uM incubated for 72 hrs by propidium iodide staining based flow cytometry (reference value: 56.6%); type: functional
[7] = system: MIA PaCa-2; assay: Cytotoxic activity in human MIAPaCa2 cells assessed as reduction in cell viability incubated for 72 hrs by MTT assay; type: functional, cell-based; details: MIA PaCa-2, 72 h
[8] = system: COLO357; assay: Induction of apoptosis in human Colo-357 cells at 5 uM incubated for 72 hrs by propidium iodide staining based flow cytometry (reference value: 12.4%); type: functional
[9] = system: COLO357; assay: Induction of cell cycle arrest in human Colo-357 cells assessed as accumulation at […] phase at 5 uM incubated for 72 hrs by propidium iodide staining based flow cytometry (reference value: 1.8%); type: functional
[10] = system: COLO357; assay: Induction of mitochondrial changes in human Colo-357 cells at 5 uM incubated for 3 hrs by flow cytometry; type: functional, cell-based
[11] = species on record: Homo sapiens; assay: Inhibition of beta tubulin assembly in human Colo-357 cells at 5 uM incubated for 3 hrs by anti-tubulin antibody based confocal microscopy; type: cell-based
[12] = Gastrointestinal toxicity in human HT-29 cells assessed as effect on golgi apparatus at 5 uM incubated for 3 hrs by flow cytometry; type: cell-based; details: ht-29, 3 h
[13] = system: PANC-1; assay: Cytotoxic activity in human PANC1 cells assessed as reduction in cell viability at 0.1 to 100000 nM incubated for 24 hrs by MTT assay; type: functional, cell-based
[14] = Gastrointestinal toxicity in human HT-29 cells assessed as effect on EPR at 5 uM incubated for 3 hrs by flow cytometry; type: cell-based; details: ht-29, 3 h
[15] = system: HEK293; assay: Cytotoxic activity in HEK293 cells assessed as reduction in cell viability at 0.1 to 100000 nM incubated for 24 hrs by MTT assay; type: cell-based; details: human, hek293, 24 h, 100 µM
[16] = Gastrointestinal toxicity in human HT-29 cells assessed as mitochondrial stimulation at 5 uM incubated for 3 hrs by flow cytometry; type: cell-based; details: ht-29, 3 h
[17] = system: HT-29; assay: Cytotoxic activity in human HT-29 cells assessed as reduction in cell viability at 0.1 to 100000 nM incubated for 24 hrs by MTT assay; type: functional, cell-based
[18] = Gastrointestinal toxicity in human HT-29 cells assessed as effect on membrane integrity at 5 uM incubated for 3 hrs by flow cytometry; type: cell-based; details: ht-29, 3 h
[19] = Gastrointestinal toxicity in human HT-29 cells assessed as effect on endosomes at 5 uM incubated for 3 hrs by flow cytometry; type: cell-based; details: ht-29, 3 h
[20] = Gastrointestinal toxicity in human HT-29 cells assessed as lysosomal membrane potential at 5 uM incubated for 3 hrs by flow cytometry; type: cell-based; details: ht-29, 3 h
[21] = Gastrointestinal toxicity in human HT-29 cells assessed as relocation from perinuclear position to cytoplasm at 5 uM incubated for 3 hrs by flow cytometry; type: cell-based; details: ht-29, 3 h
[22] = Gastrointestinal toxicity in human HT-29 cells assessed as increase in mitochondrial membrane potential at 5 uM incubated for 3 hrs by flow cytometry; type: cell-based; details: ht-29, 3 h
[23] = Gastrointestinal toxicity in human HT-29 cells assessed as increase in mitochondrial number at 5 uM incubated for 3 hrs by flow cytometry; type: cell-based; details: ht-29, 3 h

With `COc1c(Br)c2c(c(OC)c1OC)-c1cc3cc(CO)[nH]c3cc1[C@@H](NC(C)=O)CC2` the Activity [1] was 61%, the IC50 [2] was 160 nM and the “growth inhibition (GI)” value [3] was 60 - 80%. For the same compound, the inhibition [4] was “Active”, the IC50 ([5]; read-out: IC50) was 3.5 nM and the Activity [6] was 16%. The IC50 ([7]; read-out: IC50) was 10 nM, the Activity [8] was 23% and the Activity [9] was 0.3%.
With `COc1c(Br)c2c(c(OC)c1OC)-c1cc3cc(CO)n(C)c3cc1[C@@H](NC(C)=O)CC2` the Activity [10] was “Active”, the Activity [1] was 63% and the inhibition [11] was “Active”. The IC50 [2] was 6.4 nM, the Activity [12] was “Non-Toxic” and the “growth inhibition (GI)” value [3] was 60 - 80%. For the same compound, the Activity [13] was “inactive”, the Activity [14] was “Non-Toxic” and the Activity [15] was “Non-Toxic”. The Activity [16] was “Non-Toxic”, the Activity [17] was “Active” and the inhibition [4] was “Active”. The Activity [18] was “Non-Toxic”, the IC50 ([5]; read-out: IC50) was 0.3 nM and the Activity [6] was 12%. The IC50 ([7]; read-out: IC50) was under 0.1 nM, the Activity [19] was “Non-Toxic” and the Activity [8] was 25%. For the same compound, the Activity [20] was “Non-Toxic” and the Activity [9] was 0.2%.
With `COc1cc2c(c(OC)c1OC)-c1ccc(OC)c(=O)cc1[C@@H](NC(C)=O)CC2` [COLCHICINE] the Activity [1] was 75%, the Activity [21] was “Toxic” and the Activity [22] was “Toxic”. The Activity [23] was “Toxic”, the IC50 [2] was 32 nM and the Activity [12] was “Non-Toxic”. For the same compound, the “growth inhibition (GI)” value [3] was 60 - 80%, the Activity [14] was “Non-Toxic” and the inhibition [4] was “Active”. For the same compound, the Activity [18] was “Non-Toxic”, the IC50 [5] was 1.3 nM and the Activity [6] was 12.6%. For the same compound, the IC50 [7] was 1.3 nM, the Activity [19] was “Non-Toxic” and the Activity [8] was 12.4%. For the same compound, the Activity [20] was “Toxic” and the Activity [9] was 0.2%.

Source: ChEMBL document CHEMBL4130488, “Synthesis and biological evaluation of novel non-racemic indole-containing allocolchicinoids” (Eur J Med Chem, 2017)
